Reference: publication PMC9085743, “Identification of oleoylethanolamide as an endogenous ligand for HIF-3α” (Nature Communications, 2022)

Target: T1, HIF-3α (Mus musculus, UniProt Q0VBL6)
T1 construct: gene Hif3a; SPR: MBP-HIF-3α-PAS-B (residues 235-363); crystal: HIF-3α residues 4-358 with ARNT residues 82–464; with ARNT (in the crystal, thermal shift, AS-MS, TR-FRET and HDX-MS; not in SPR)
Test: co-crystal structure ([…] Å), SPR, thermal shift, AS-MS, HDX-MS
Type: binding

T1 sequence (Q0VBL6 235-363): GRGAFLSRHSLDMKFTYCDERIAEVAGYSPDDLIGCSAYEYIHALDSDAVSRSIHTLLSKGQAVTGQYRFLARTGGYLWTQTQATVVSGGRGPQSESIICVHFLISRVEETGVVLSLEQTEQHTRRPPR

SMILES: CCCCCCCC/C=C\CCCCCCCC(=O)NCCO [OEA, oleoylethanolamide]
- Kd: ~14 µM
